Assays:
ΔF508-CFTR [1] = target: T1, ΔF508-CFTR (Homo sapiens, UniProt P13569, DEL508-508); experiment: CFTR cell surface levels using HRP-tagged ΔF508-CFTR expressing CFBE cells, intrinsic corrector capacity; type: cell-based; details: for EC50: read-out: EC50
T1 construct: host or cells: CFBE41o-, doxycycline-inducible
Summary of the method: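 Here the cells express ΔF508-CFTR with horseradish peroxidase inserted in extracellular loop 4, so only rescued channel at the surface gives luminescent signal. Compounds act on their own, 20 h at the reduced temperature of 33 °C; values are percent activity relative to DMSO and a 3 μM corrector.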

ΔF508-CFTR [2] = target: T1, ΔF508-CFTR; experiment: CFTR cell surface levels using HRP-tagged ΔF508-CFTR expressing CFBE cells, in the presence of a co-corrector; type: cell-based; details: HRP-tagged ΔF508-CFTR expressing CFBE cells, in the presence of 3 μM co-corrector; for EC50: read-out: EC50
Summary of the method: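 Cells were seeded with 0.5 μg/mL doxycycline and held 68 h at 37 °C. Test compounds plus 3 μM co-corrector (final 0.1% DMSO) were then added for 20 h at 33 °C. Washed cells received HRP substrate, and luminescence was normalized between DMSO and 3 μM co-corrector controls.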

[3] = HRP-tagged ΔF508-CFTR CFBE41o- cells, compounds alone (intrinsic corrector capacity), 20 hours at 33° C., positive control 3 μM corrector
[4] = HRP-tagged ΔF508-CFTR CFBE41o- cells, compounds alone (intrinsic corrector capacity), 20 hours at 33° C.
[5] = HRP-tagged ΔF508-CFTR expressing CFBE cells, intrinsic corrector capacity (no co-corrector), 33° C., 20 hours

T1 sequence (P13569 with tags, fused parts or gaps DEL508-508): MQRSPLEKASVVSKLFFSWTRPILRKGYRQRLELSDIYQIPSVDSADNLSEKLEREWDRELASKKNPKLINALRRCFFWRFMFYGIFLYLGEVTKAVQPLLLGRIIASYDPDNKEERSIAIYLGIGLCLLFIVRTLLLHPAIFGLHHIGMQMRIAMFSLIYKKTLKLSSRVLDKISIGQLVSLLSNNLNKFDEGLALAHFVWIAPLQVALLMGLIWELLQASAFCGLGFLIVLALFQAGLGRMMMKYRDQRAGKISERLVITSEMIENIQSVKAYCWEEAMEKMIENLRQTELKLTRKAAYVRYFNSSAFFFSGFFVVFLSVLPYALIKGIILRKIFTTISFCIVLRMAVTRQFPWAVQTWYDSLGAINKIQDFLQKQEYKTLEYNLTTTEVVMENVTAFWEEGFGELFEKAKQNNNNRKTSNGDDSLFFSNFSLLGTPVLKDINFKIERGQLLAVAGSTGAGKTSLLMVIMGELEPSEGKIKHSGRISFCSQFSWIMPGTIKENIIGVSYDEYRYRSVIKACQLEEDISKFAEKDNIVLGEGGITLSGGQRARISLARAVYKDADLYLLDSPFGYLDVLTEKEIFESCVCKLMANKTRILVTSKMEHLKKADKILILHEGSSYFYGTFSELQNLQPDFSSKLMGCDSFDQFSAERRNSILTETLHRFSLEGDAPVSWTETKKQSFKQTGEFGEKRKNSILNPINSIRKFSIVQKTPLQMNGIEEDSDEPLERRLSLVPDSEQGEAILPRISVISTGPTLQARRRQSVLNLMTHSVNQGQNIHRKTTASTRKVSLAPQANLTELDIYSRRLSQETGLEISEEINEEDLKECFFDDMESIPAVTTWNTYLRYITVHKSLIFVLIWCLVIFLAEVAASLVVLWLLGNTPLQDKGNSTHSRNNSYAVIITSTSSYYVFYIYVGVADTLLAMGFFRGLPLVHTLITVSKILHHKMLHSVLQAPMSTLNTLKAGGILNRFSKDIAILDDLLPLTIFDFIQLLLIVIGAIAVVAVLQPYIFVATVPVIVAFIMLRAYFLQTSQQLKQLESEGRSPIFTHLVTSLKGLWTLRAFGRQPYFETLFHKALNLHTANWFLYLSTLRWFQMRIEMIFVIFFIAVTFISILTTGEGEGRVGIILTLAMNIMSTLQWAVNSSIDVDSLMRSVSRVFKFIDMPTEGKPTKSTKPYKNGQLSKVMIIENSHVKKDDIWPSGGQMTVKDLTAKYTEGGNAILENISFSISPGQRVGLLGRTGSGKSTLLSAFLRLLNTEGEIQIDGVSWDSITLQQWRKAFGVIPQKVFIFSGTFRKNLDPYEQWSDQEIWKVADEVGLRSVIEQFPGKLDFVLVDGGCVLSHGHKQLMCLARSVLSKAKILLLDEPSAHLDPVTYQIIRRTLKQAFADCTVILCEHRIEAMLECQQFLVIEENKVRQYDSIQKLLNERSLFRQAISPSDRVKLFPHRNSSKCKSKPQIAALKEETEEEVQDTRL

Compound | % Activation (ΔF508-CFTR [1]; [3]) | EC50 (ΔF508-CFTR [1]; [4]) | % Activation (ΔF508-CFTR [2]) | EC50 (ΔF508-CFTR [2]) | % Activation (ΔF508-CFTR [1]; [5]) | EC50 (ΔF508-CFTR [1]; [5]) | % Activation (ΔF508-CFTR [1]; HRP-tagged ΔF508-CFTR CFBE cells, compound alone (intrinsic corrector capacity), 20 hours at 33° C.)
CC(C)c1nn(C2CCCCC2)c2nc(C(=O)O)cc(-c3cnc(N(C)C)nc3)c12 [compound 62, 1-cyclohexyl-4-[2-(dimethylamino)pyrimidin-5-yl]-3-(propan-2-yl)-1H-pyrazolo[3,4-b]pyridine-6-carboxylic acid] | 159.65% | 2630 nM | 349.9% | 1690 nM | – | – | –
COCC1CCN(c2cc(C(=O)O)nc3c2c(C(C)C)nn3-c2ccnc(N3CCOCC3)n2)CC1 [compound 589] | – | – | 451.75% | 303 nM | 232.15% | 458 nM | –
O=C1CN(c2cc(C(=O)O)nc3c2c(C2CCC2)nn3-c2ccccc2)CCN1 [compound 504, 3-cyclobutyl-4-(3-oxopiperazin-1-yl)-1-phenyl-1H-pyrazolo[3,4-b]pyridine-6-carboxylic acid] | – | – | 138.9% | > 10000 nM | 19.62% | > 10000 nM | –
COCC1CCN(c2cc(C(=O)O)nc3c2c(C(C)C)nn3CC2CCC2)CC1 [compound 547, 1-(cyclobutylmethyl)-4-[4-(methoxymethyl)piperidin-1-yl]-3-(propan-2-yl)-1H-pyrazolo[3,4-b]pyridine-6-carboxylic acid] | – | – | 318.7% | 1880 nM | 120.7% | 3330 nM | –
O=C(O)c1cc(N2CCC(N3CCCC3)CC2)c2c(C3CCC3)nn(-c3ccccc3)c2n1 [compound 443, 3-cyclobutyl-1-phenyl-4-[4-(pyrrolidin-1-yl)piperidin-1-yl]-1H-pyrazolo[3,4-b]pyridine-6-carboxylic acid] | – | – | 317.25% | 1470 nM | 146.9% | 2300 nM | –
N#CCN1CC(c2nn(-c3ccccc3)c3nc(C(=O)O)cc(-c4ccc(N5CCOCC5)cc4)c23)C1 [compound 148, 3-[1-(cyanomethyl)azetidin-3-yl]-4-[4-(morpholin-4-yl)phenyl]-1-phenyl-1H-pyrazolo[3,4-b]pyridine-6-carboxylic acid] | 79.64% | 3340 nM | 238.75% | 3340 nM | – | – | –
CC(C)c1nn(-c2ccc(F)cc2)c2nc(C(=O)O)cc(N3CCCC(C(F)F)C3)c12 (stereo not shown) [compound 399, 4-[3-(difluoromethyl)piperidin-1-yl]-1-(4-fluorophenyl)-3-(propan-2-yl)-1H-pyrazolo[3,4-b]pyridine-6-carboxylic acid] | – | – | 336.55% | 475 nM | 137.6% | 824 nM | –
COCCC1(COc2cc(C(=O)O)nc3c2c(C2CCC2)nn3-c2ccccc2)CC1 [compound 485, 3-cyclobutyl-4-{[1-(2-methoxyethyl)cyclopropyl]methoxyl}-1-phenyl-1H-pyrazolo[3,4-b]pyridine-6-carboxylic acid] | – | – | 242.05% | 335 nM | 107.5% | 1070 nM | –
Cc1nn(-c2ccccc2)c2nc(C(=O)O)cc(-c3ccc(N4CCCC(O)C4)cc3)c12 (stereo not shown) [compound 198, 4-[4-(3-hydroxypiperidin-1-yl)phenyl]-3-methyl-1-phenyl-1H-pyrazolo[3,4-b]pyridine-6-carboxylic acid] | 220% | 1120 nM | 364% | 1010 nM | – | – | –
O=C(O)c1cc(OC2CCOCC2)c2c(C3CCC3)nn(-c3ccccc3)c2n1 [compound 579, 3-cyclobutyl-4-[(oxan-4-yl)oxy]-1-phenyl-1H-pyrazolo[3,4-b]pyridine-6-carboxylic acid] | – | – | 263.5% | 267 nM | 97.37% | 238 nM | –
O=C(O)c1cc(N2CCC(N3CCOCC3)CC2)c2c(C3CCC3)nn(-c3ccnc(OCc4ccccc4)c3)c2n1 [compound 856, 1-[2-(benzyloxy)pyridin-4-yl]-3-cyclobutyl-4-[4-(morpholin-4-yl)piperidin-1-yl]-1H-pyrazolo[3,4-b]pyridine-6-carboxylic acid] | – | – | 416.9% | 88.3 nM | 230.7% | 248 nM | –
O=C(O)c1cc(N2CC3(CCCCC3)C2)c2c(C3CCC3)nn(-c3ccccc3)c2n1 [compound 409, 4-(2-azaspiro[3.5]nonan-2-yl)-3-cyclobutyl-1-phenyl-1H-pyrazolo[3,4-b]pyridine-6-carboxylic acid] | – | – | 249.3% | 1110 nM | 75.39% | 1070 nM | –
CC(C)c1nn(-c2ccc(F)cc2)c2nc(C(=O)O)cc(N3CCCN(C(C)C)CC3)c12 [compound 795, 1-(4-fluorophenyl)-3-(propan-2-yl)-4-[4-(propan-2-yl)-1,4-diazepan-1-yl]-1H-pyrazolo[3,4-b]pyridine-6-carboxylic acid] | – | – | 175.3% | 1670 nM | 47.22% | 1670 nM | –
Cc1nn(-c2ccccc2)c2nc(C(=O)O)cc(C3CCN(CC#N)CC3)c12 [compound 139, 4-[1-(cyanomethyl)piperidin-4-yl]-3-methyl-1-phenyl-1H-pyrazolo[3,4-b]pyridine-6-carboxylic acid] | −0.041% | > 10000 nM | 104.1% | > 10000 nM | – | – | –
CC(C)c1nn(-c2cccc(N(C)C)n2)c2nc(C(=O)O)cc(-c3ccc(N4CCOCC4)cc3)c12 [compound 267, 1-[6-(dimethylamino)pyridin-2-yl]-4-[4-(morpholin-4-yl)phenyl]-3-(propan-2-yl)-1H-pyrazolo[3,4-b]pyridine-6-carboxylic acid] | 318.9% | 807 nM | 498.35% | 412 nM | – | – | –
Cc1cccc(-n2nc(C(C)C)c3c(N4CCC(S(C)(=O)=O)C4)cc(C(=O)O)nc32)c1 (stereo not shown) [compound 272, 4-[3-(methanesulfonyl)pyrrolidin-1-yl]-1-(3-methylphenyl)-3-(propan-2-yl)-1H-pyrazolo[3,4-b]pyridine-6-carboxylic acid] | 135.5% | 3340 nM | 319.6% | 3340 nM | – | – | –
COC1CCN(C2CCN(c3cc(C(=O)O)nc4c3c(O)nn4-c3ccc(F)cc3)CC2)CC1 [compound 925, 1-(4-fluorophenyl)-3-hydroxy-4-(4-methoxy[1,4′-bipiperidin]-1′-yl)-1H-pyrazolo[3,4-b]pyridine-6-carboxylic acid] | – | – | 126.05% | – | – | – | 11.745%
CCC1(COc2cc(C(=O)O)nc3c2c(C2CCC2)nn3-c2ccccc2)COC1 [compound 581, 3-cyclobutyl-4-[(3-ethyloxetan-3-yl)methoxy]-1-phenyl-1H-pyrazolo[3,4-b]pyridine-6-carboxylic acid] | – | – | 377.8% | 203 nM | 146% | 250 nM | –
CN(C[C@@H]1CCN(c2cc(C(=O)O)nc3c2c(C2CCC2)nn3-c2ccccc2)C1)C(=O)OC(C)(C)C [compound 674, 4-[(3R)-3-{[(tert-butoxycarbonyl)(methyl)amino]methyl}pyrrolidin-1-yl]-3-cyclobutyl-1-phenyl-1H-pyrazolo[3,4-b]pyridine-6-carboxylic acid] | – | – | 323.85% | 380 nM | 158.5% | 521 nM | –
CC(C)c1nn(-c2ccccc2)c2nc(C(=O)O)cc(-c3cnc(N4CCOCC4)nc3)c12 [compound 79, 4-[2-(morpholin-4-yl)pyrimidin-5-yl]-1-phenyl-3-(propan-2-yl)-1H-pyrazolo[3,4-b]pyridine-6-carboxylic acid] | 195.9% | 697 nM | 256.45% | 5280 nM | – | – | –
N#CC1CCN(c2ccc(-c3cc(C(=O)O)nc4c3c(C3CC(F)(F)C3)nn4-c3ccccc3)cn2)CC1 [compound 420, 4-[6-(4-cyanopiperidin-1-yl)pyridin-3-yl]-3-(3,3-difluorocyclobutyl)-1-phenyl-1H-pyrazolo[3,4-b]pyridine-6-carboxylic acid] | – | – | 411.25% | 289 nM | 211.15% | 534 nM | –

Source: patent US9796711B2, “Substituted pyrazolo[3,4-b]pyridin-6-carboxylic acids and method of use” (AbbVie S.àr.l., priority 2015, dated 2017)
